The values below come from PMC10039358, “The 8-bromobaicalein inhibited the replication of dengue, and Zika viruses and targeted the dengue polymerase” (Scientific Reports, 2023).

A value given as a limit tells only on which side of the number the result lay.

One experiment has as its target T1, DENV-2 MTase (Dengue virus type 2, UniProt P14340).
T1 construct: N-terminally Histidine-tagged DENV-2 MTase (NHis-MTase) synthesized according to previous description; His-tag (N)
The experiment can be described thus: MTase-Glo methyltransferase assay. It counts as biochemical. The following applies: 100 µM compound. Here is the method: The production of DENV2 MTase was performed according to a described protocol. In brief, N-terminally Histidine-tagged DENV-2 MTase (NHis-MTase) synthesized according to previous description[30] (GenScript; Piscataway, NJ, USA) was expressed with 100 µM IPTG (isopropyl-b-D-thiogalactopyranoside) induction, at 27 °C for 16 h. Cell disruption and clarification were sequentially done via sonication and centrifugation at 12,000 rpm for 30 min at 4 °C. His-tagged […] was purified by immobilized metal affinity chromatography (IMAC; Cytiva, Marlborough, MA, USA) with 500 mM imidazole elution. The eluate was dialyzed against 2 L of 50 mM Tris, pH 7.5, 50 mM NaCl, 1 mM MgCl2, 40% glycerol, and 1 mM DTT at 4 °C overnight. The purified enzyme was verified by Coomassie staining and methyltransferase activity.
The MTase assay for inhibition testing was adapted from the previous publications. The MTase assay for inhibition testing was performed using MTase-Glo™ Methyltransferase Assay according to the manufacturer’s protocol (Promega, Madison, Wisconsin, USA). Each reaction was performed in 50 µl reaction using the MTase from DENV-2. […] The luminescence was measured using VICTORTM X3 2030 Multilabel Reader (Perkin Elmer, Waltham, MA, USA). The percent enzyme activity was calculated from two independent experiments by using PRISM version 9 (GraphPad Software, La Jolla, CA, USA).

The next experiment relates to DENV3. Put plainly: Time-of-addition, viral RNA by RT-qPCR. The experiment is classed as cell-based. The following applies: 10 µM added 1, 6, and 12 h after infection, LLC/MK2, M.O.I. 1. Here is the method: (§1) The protocol was adapted from a previous description. Briefly, LLC/MK2 cells (5 × 10^4) were seeded in a 24-well plate and incubated as described. Cells were infected with DENV2 NGC, unless otherwise indicated, at the M.O.I. of 0.1 before adding the compound at designated concentrations. DMSO at 1% was used as no inhibition control. Supernatants were collected to determined viral titers by plaque titration assay or RT-qPCR.
(§2) Supplementary Fig. S8. The time-of-addition of 8-bromobaicalein against DENV3-, and ZIKV-infected LLC/MK2 cells. Briefly, the 10 µM 8-bromobaicalein was added to the virus-infected cells (M.O.I. of 1) at 1, 6, 12, 24, and 48 h post-infection. Supernatants were collected at 48 h after infection for analysis by RT-qPCR. Results were reported as percent inhibition from DMSO-treated cells.

The next experiment has as its system ZIKV. Put plainly: Time-of-addition, viral RNA by RT-qPCR. The experiment is classed as cell-based. The following applies: 10 µM added 1, 6, and 12 h after infection, LLC/MK2, M.O.I. 1. On the procedure: as §1, §2
Another experiment concerns the target T2, DENV2 NS5/RdRp (Dengue virus type 2, UniProt P29990).
T2 construct: The 73.2 kDa of non-tagged NS5/RdRp was successfully purified by size exclusion chromatography; His-tag (N, cleaved yes); made in house
Put plainly: In vitro RdRp assay (SYTO-9 fluorescence). The experiment is classed as biochemical, DENV-2. Here is the method:
The production of DENV2 RdRp was performed according to a described protocol. In brief, N-terminally Histidine-tagged DENV2 RdRp (NHis-RdRp) was expressed with 200 µM IPTG (isopropyl-b-D-thiogalactopyranoside) induction, at 37 °C for 4 h. Cell disruption and clarification were sequentially done via sonication and centrifugation at 15,000 rpm for 1 h at 4 °C. His-tagged RdRp was purified by immobilized metal affinity chromatography (IMAC) with 175 mM imidazole elution. His-tag was removed by adding 2 units thrombin per 1 mg protein during dialysis for 2 days at 4 °C. The non-tagged RdRp was further purified by size exclusion chromatography. […]
The RdRp assay for inhibition testing was adapted from the previous publications[46],[71]. […] The nascent double-stranded RNA was quantitated by mixing 10 µl of the reaction mixture with 10 µl of 5 µM SYTO-9 dye in Tris–EDTA buffer and incubating at room temperature for 5 min. Fluorescence was measured at excitation and emission wavelengths of 485 nm and 520 nm, respectively, by using EnSight Multimode Plate Reader (Perkin Elmer, Waltham, MA, USA). The IC50 value was calculated from three independent experiments by using PRISM version 9 (GraphPad Software, Inc., La Jolla, CA, USA).

T1 sequence (P14340 2493-2755): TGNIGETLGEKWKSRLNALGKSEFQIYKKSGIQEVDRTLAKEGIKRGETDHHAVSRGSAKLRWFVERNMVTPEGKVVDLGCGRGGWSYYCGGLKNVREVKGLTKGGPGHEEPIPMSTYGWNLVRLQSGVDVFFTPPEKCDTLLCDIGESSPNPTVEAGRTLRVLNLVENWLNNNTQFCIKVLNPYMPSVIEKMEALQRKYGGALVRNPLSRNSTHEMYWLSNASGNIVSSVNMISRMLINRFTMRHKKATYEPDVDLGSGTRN

For `O=c1cc(-c2ccccc2)oc2c(Br)c(O)c(O)c(O)c12` [8-bromobaicalein], the inhibition (in general, the share of the control response that was lost under treatment) at 100 µM at DENV-2 MTase was less than 50%. Further, the “Inhibition of DENV3 RNA” value in the experiment with DENV3 was “inhibited”. Also, the “Inhibition of ZIKV RNA” value in the experiment on ZIKV is reported as “inhibited”. Further, the IC50 – broadly, the midpoint of a concentration-inhibition curve – at DENV2 NS5/RdRp was 34.9 µM.
